Measured values as given in US5624917A, “Method of inhibiting squalene synthetase” (Takeda Chemical Industries, Ltd., priority 1991, dated 1997).
Structures can show the parent of a compound that is named as a salt. Where two headings read alike, the source gives them in different places.

Experiments:
[1] = biological target: T1, squalene synthetase (Rattus norvegicus, UniProt Q02769); assay: Squalene synthetase inhibitory activity, rat enzyme (rat liver microsome fraction); type: biochemical; settings: 5 μM [1-3H]farnesylpyrophosphoric acid, pH 7.4, 37° C., 45 minutes
T1 construct: from tissue; host or cells: liver of male SD rats (microsome fraction)
T1 sequence (Q02769 1-416): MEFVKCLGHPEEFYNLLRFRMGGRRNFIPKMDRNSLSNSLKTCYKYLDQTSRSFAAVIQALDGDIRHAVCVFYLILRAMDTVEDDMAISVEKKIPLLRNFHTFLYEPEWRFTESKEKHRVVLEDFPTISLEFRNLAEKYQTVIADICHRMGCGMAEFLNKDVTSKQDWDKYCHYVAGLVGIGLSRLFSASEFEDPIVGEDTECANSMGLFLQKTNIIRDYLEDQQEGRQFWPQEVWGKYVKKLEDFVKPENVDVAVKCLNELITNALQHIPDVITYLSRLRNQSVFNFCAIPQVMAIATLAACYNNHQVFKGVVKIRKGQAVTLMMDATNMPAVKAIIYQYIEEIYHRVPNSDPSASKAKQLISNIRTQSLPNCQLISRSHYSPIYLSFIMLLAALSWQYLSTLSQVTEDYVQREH
Procedure: (§1) Squalene synthetase inhibitory activity and cholesterol biosynthesis inhibitory activity of the compounds used in the present invention were determined by the following method.
(§2) Determination of squalene synthetase inhibitory activity
(§3) The squalene synthetase inhibitory activity was determined as follows by using the enzyme solutions shown in Experiments 1 and 2 below.
(§4) Each enzyme solution (Protein: 0.8 μg) prepared in Experiments 1 and 2 was added to a solution (total amount: 50 μl) containing 5 μM[1-^3 H]farnesylpyrophosphoric acid (Specific activity 25 μCi/μmole), 1 mM NADPH, 5 mM MgCl2, 6 mM glutathione, 100 mM potassium phosphate buffer (pH 7.4) and a drug to be tested (which was added as a solution thereof in water or DMSO). The mixture was allowed to react at 37° C. for 45 minutes. A mixture (150 μl) of chloroform and methanol (1:2) was added to stop the reaction. Then, chloroform (50 μl) and 3N sodium hydroxide solution (50 μl) were added. The chloroform layer (under layer, 50 μl) containing the reaction products in which the major component was squalene was mixed with toluene liquid scintillator (3 ml). The radioactivity was measured with a liquid scintillation counter.
(§5) The squalene synthetase inhibitory activity is indicated by the concentration (IC50, molarity(M)) which inhibits the radioactivity incorporated into the chloroform layer by 50%.
Preparation of rat enzyme
SD-Male rats (6 weeks old) were bled to death followed by removal of liver. The liver (ca. 10 g) was washed with ice-cooled physiological saline, homogenized in an ice-cooled buffer solution (15 ml) [100 mM potassium phosphate (pH 7.4), 15 mM nicotinamide, 2 mM MgCl2 ] and centrifuged at 10,000×g for 20 minutes (4° C.). The resulting supernatant was further centrifuged at 105,000×g for 90 minutes (4° C.). Then, the deposit was suspended in an ice-cooled 100 mM potassium phosphate buffer solution (pH 7.4) and centrifuged at 105,000×g for 90 minutes (4° C.) again. The deposit (microsome fraction) thus obtained was suspended in an ice-cooled 100 mM potassium phosphate buffer solution (pH 7.4) so that the protein concentration became about 40 mg/ml (measured with BCA Protein Assay Kit (Pias)), and the suspension was used as the enzyme solution.

[2] = biological target: T2, squalene synthetase (Homo sapiens, UniProt P37268); assay: Squalene synthetase inhibitory activity, human enzyme (HepG2 microsome fraction); type: biochemical
T2 construct: From the resulting sonicate, microsome fraction was obtained according to the same manner as that described in Experiment 1; endogenous in cells; host or cells: HepG2 human hepatoma cells (microsome fraction)
T2 sequence (P37268 1-417): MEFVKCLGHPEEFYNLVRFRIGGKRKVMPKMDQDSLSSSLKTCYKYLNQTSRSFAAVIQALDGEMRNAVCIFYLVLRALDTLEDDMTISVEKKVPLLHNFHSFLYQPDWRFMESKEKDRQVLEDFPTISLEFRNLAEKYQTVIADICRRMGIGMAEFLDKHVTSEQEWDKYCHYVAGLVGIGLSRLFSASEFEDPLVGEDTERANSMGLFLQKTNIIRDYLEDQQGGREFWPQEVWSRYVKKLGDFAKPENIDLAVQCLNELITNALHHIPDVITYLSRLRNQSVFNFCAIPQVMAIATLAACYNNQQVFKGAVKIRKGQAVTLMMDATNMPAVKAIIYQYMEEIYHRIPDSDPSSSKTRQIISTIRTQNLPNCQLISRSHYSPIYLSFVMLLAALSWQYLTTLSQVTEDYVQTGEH
Procedure: as §1, §2, §3, §4, §5
Preparation of human enzyme
Cultivation was carried out on Dulbecco modified Eagle medium containing 10% bovine fetal serum in the presence of 5% CO2 at 37° C. The human hepatoma cells HepG2 (ca. 1×10^9 cells) were suspended in an ice-cooled buffer solution (10 ml) [100 mM potassium phosphate (pH 7.4), 30 mM nicotinamide, 2.5 mM MgCl2 ], and the cells were crushed by ultrasonication (30 seconds, twice). From the resulting sonicate, microsome fraction was obtained according to the same manner as that described in Experiment 1. This microsome fraction was suspended in an ice-cooled 100 mM potassium phosphate buffer solution (pH 7.4) so that the protein concentration became about 4 mg/ml, and this suspension was used as the enzyme liquid.

[3] = read-out: IC50, squalene synthetase inhibitory activity, Rat enzyme
[4] = human hepatoma HepG2 microsome fraction, 5 μM [1-3H]farnesylpyrophosphoric acid, pH 7.4, 37° C., 45 minutes, read-out: IC50, squalene synthetase inhibitory activity, Human enzyme
[5] = IC50, squalene synthetase inhibitory activity, Rat enzyme

Row | Molecule | IC50 [1, 3] | IC50 [2, 4] | IC50 [1, 5] | IC50 [2]
1 | O=P(O)(O)C(CCCc1ccccc1)P(=O)(O)O [compound 21, 4-phenylbutylidene-1,1-bisphosphonic acid] | 5500 nM |  |  | 
2 | O=P(O)(O)C(O)(CCCCCSc1ccccn1)P(=O)(O)O [Compound No. 109, trisodium 1-hydroxy-6-(2-pyridylthio)hexane-1,1-bisphosphonate] | 1300 nM | 5800 nM |  | 
3 | O=P(O)(O)C(NCCCCCC[S+]([O-])c1ccccc1)P(=O)(O)O (centres unmarked) [compound 60, disodium 6-(phenylsulfinyl)hexylaminomethylenebisphosphonate] | 6 nM | 3.1 nM |  | 
4 | CC(C)=CCC/C(C)=C/CNC(P(=O)(O)O)P(=O)(O)O [compound 86] | 27 nM | 35 nM |  | 
5 | O=P(O)(O)C(NCCCCCCSc1nc2ccccc2s1)P(=O)(O)O [compound 83] | 4.3 nM | 8.4 nM |  | 
6 | CCOP(=O)(O)C(NCCCCCCSc1ccccc1)P(=O)(O)O (centres unmarked) [Compound No. 113, 6-(phenylthio)hexylaminomethylenebisphosphonic acid monoethyl ester monosodium salt] |  |  | 15 nM | 9.8 nM
7 | O=P(O)(O)C(NCCCCCCCCCCCCSc1ccccc1)P(=O)(O)O [compound 89, monosodium 12-(phenylthio)dodecylaminomethylenebisphosphonate] | 8.1 nM |  |  | 
8 | CCOP(=O)(OCC)C(NCCSCCc1ccccc1)P(=O)(OCC)OCC [compound 18] | 790 nM | 610 nM |  | 
9 | CC(C)=CCC/C(C)=C/CC/C(C)=C/CNC(P(=O)(O)O)P(=O)(O)O [compound 99] | 6.9 nM | 6.7 nM |  | 
10 | CC(C)CCCC(C)CCCC(C)CCC(P(=O)(O)O)P(=O)(O)O (centres unmarked) [Compound No. 108, disodium 4,8,12-trimethyltridecylidene-1,1-bisphosphonate] | 23 nM | 44 nM |  | 
11 | CCOP(=O)(OCC)C(NCCCCCc1ccccc1)P(=O)(OCC)OCC [compound 14] | 560 nM | 450 nM |  | 
12 | O=P(O)(O)C(NCCCCCCSc1nnc2ccccn12)P(=O)(O)O [compound 81] | 200 nM | 1800 nM |  | 
13 | CCOP(=O)(O)C(NC/C=C(\C)CC/C=C(\C)CCC=C(C)C)P(=O)(O)O (centres unmarked) [Compound No. 111, (E,E)-farnesylaminomethylenebisphosphonic acid monoethyl ester monosodium salt] |  |  | 19 nM | 22 nM
14 | O=P(O)(O)C(NCCCCCOc1ccccc1)P(=O)(O)O [compound 10] | 8.1 nM | 5.2 nM |  | 
15 | O=P(O)(O)C(NCCCCCCCCCSc1ncccn1)P(=O)(O)O [compound 79] | 8.8 nM | 7 nM |  | 
16 | O=P(O)(O)C(NCCCSCc1ccccc1)P(=O)(O)O [compound 17] | 18 nM | 12 nM |  | 
17 | CC(C)CCCC(C)CCCC(C)CCNC(P(=O)(O)O)P(=O)(O)O (centres unmarked) [compound 63] | 4.3 nM | 2.2 nM |  | 
18 | O=P(O)(O)C(NCCCCCCCCCCSc1ccccc1)P(=O)(O)O [compound 61] | 0.58 nM | 0.47 nM |  | 
19 | CCOP(=O)(OCC)C(NCCCCCCSc1ccccc1)P(=O)(OCC)OCC [compound 19] | 7500 nM | 6900 nM |  | 
20 | O=P(O)(O)C(NCCSCCc1ccccc1)P(=O)(O)O [compound 16] | 20 nM | 9.7 nM |  | 
21 | O=P(O)(O)C(NCCCCCCSc1ccccc1)P(=O)(O)O [compound 11] | 3.6 nM | 1.5 nM |  | 
22 | CC(C)(C)SCCCCNC(P(=O)(O)O)P(=O)(O)O [compound 5] | 760 nM | 9100 nM |  | 
23 | O=P(O)(O)C(NCCCCCCCCCCSc1ncccn1)P(=O)(O)O [compound 101] | 7.8 nM | 6.1 nM |  | 
24 | CCOP(=O)(OCC)C(NCCCCCCSc1ccc(Cl)cc1)P(=O)(OCC)OCC [compound 28] | 6200 nM | 3200 nM |  | 
25 | O=P(O)(O)C(NCCCCCSC1CCCCC1)P(=O)(O)O [compound 7] | 19 nM | 18 nM |  | 
26 | CCOP(=O)(OCC)C(NCCCCCSC1CCCCC1)P(=O)(OCC)OCC [compound 15] | 4100 nM |  |  | 
27 | O=P(O)(O)C(NCCCCNc1ccccc1)P(=O)(O)O [Compound No. 110, 4-(phenylamino)butylaminomethylene-1,1-bisphosphonic acid hydrochloride] | 44 nM | 61 nM |  | 
28 | (E,E)-farnesylaminomethylenebisphosphonic acid diethyl ester disodium salt [Compound No. 112] | 3300 nM | 8200 nM |  | 

The remaining molecules from weak to strong by IC50 [1, 3], led by results:

Row | IC50 [1, 3] | IC50 [2, 4] | Molecule | IC50 [1, 5] | IC50 [2]
29 | 6400 nM |  | O=P(O)(O)C(NCCCCS(=O)(=O)c1ccccc1)P(=O)(O)O [compound 12] |  | 
30 | 940 nM | 6400 nM | O=P(O)(O)C(NC1CCCCCC1)P(=O)(O)O [compound 20] |  | 
31 | 370 nM | 1300 nM | CCSCCCCNC(P(=O)(O)O)P(=O)(O)O [compound 4] |  | 
32 | 210 nM | 300 nM | O=P(O)(O)C(NCCCCSc1ccncc1)P(=O)(O)O [compound 3] |  | 
33 | 97 nM | 180 nM | O=P(O)(O)C(NCCCCSc1ccccn1)P(=O)(O)O [compound 2] |  | 
34 | 62 nM | 110 nM | CC(C)=CCC/C(C)=C/CC/C(C)=C/CC(P(=O)(O)O)P(=O)(O)O [compound 106, trisodium (E,E)-farnesylmethylenebisphosphonate] |  | 
35 | 19 nM | 20 nM | CC(C)=CCC/C(C)=C/CC/C(C)=C/CNC(P(=O)(O)O)P(=O)(O)O [compound 93] |  | 
36 | 18 nM | 8.9 nM | O=P(O)(O)C(NCCCCSc1ccccc1)P(=O)(O)O [compound 1] |  | 
37 | 13 nM |  | O=P(O)(O)C(NCCCCCSc1ccccc1)P(=O)(O)O [compound 88] |  | 
38 | 12 nM | 12 nM | O=P(O)(O)C(NCCCCCCCCCSc1ncccn1)P(=O)(O)O [compound 100] |  | 
39 | 9 nM | 6.3 nM | O=P(O)(O)C(NCCCC[S+]([O-])c1ccccc1)P(=O)(O)O (centres unmarked) [compound 9] |  | 
40 | 5.7 nM |  | O=P(O)(O)C(NCCCCCSc1ccccc1)P(=O)(O)O [compound 6] |  | 
41 | 4.7 nM | 4 nM | O=P(O)(O)C(NCCCCCC[S+]([O-])c1ccc2ccccc2c1)P(=O)(O)O (centres unmarked) [compound 66] |  | 
42 | 4.5 nM | 4.6 nM | O=P(O)(O)C(NCCCCCCCCCCC[S+]([O-])c1ccccc1)P(=O)(O)O (centres unmarked) [compound 72] |  | 
43 | 3.1 nM | 3 nM | O=P(O)(O)C(NCCCCCCCCCCCSc1ccccc1)P(=O)(O)O [compound 102, trisodium 11-(phenylthio)undecylaminomethylenebisphosphonate] |  | 
